Test results taken from ChEMBL document CHEMBL1155624, “Steroidal glycosides from the aerial parts of Polianthes tuberosa” (J Nat Prod, 2000).
Values after ≈ are worked out from the molar mass of the structure shown.

Test system: HL-60
Assay: Cytotoxicity against human HL60 cells by MTT reduction assay
Assay type: functional, cell-based

In the case of `CC1CC[C@@]2(OC1)O[C@H]1C[C@H]3[C@@H]4CC[C@H]5C[C@@H](O[C@@H]6O[C@H](CO)[C@H](O[C@@H]7O[C@H](CO)[C@@H](O)[C@H](O[C@@H]8OC[C@@H](O)[C@H](O)[C@H]8O)[C@H]7O[C@@H]7O[C@H](CO)[C@@H](O)[C@H](O[C@@H]8OC[C@@H](O)[C@H](O)[C@H]8O)[C@H]7O)[C@H](O)[C@H]6O)CC[C@]5(C)[C@H]4CC(=O)[C@]3(C)[C@H]1[C@@H]2C` (some centres undefined), the IC50 is reported as 3.2 µg/mL (≈ 2.71 µM).

In the case of `CC1CC[C@@]2(OC1)O[C@H]1C[C@H]3[C@@H]4CC[C@H]5C[C@@H](O[C@@H]6O[C@H](CO)[C@H](O[C@@H]7O[C@H](CO)[C@@H](O)[C@H](O[C@@H]8OC[C@@H](O)[C@H](O)[C@H]8O)[C@H]7O[C@@H]7O[C@H](CO)[C@@H](O)[C@H](O[C@@H]8OC[C@@H](O)[C@H](O)[C@H]8O)[C@H]7O)[C@H](O)[C@H]6O)CC[C@]5(C)C4=CC(=O)[C@]3(C)[C@H]1[C@@H]2C` (some centres undefined), the IC50 is reported as 6.1 µg/mL (≈ 5.17 µM).

`CC(C)CC[C@H](O)[C@@H](C)[C@H]1[C@@H](O[C@@H]2OC[C@](O)(CO)[C@H]2O)C[C@H]2[C@@H]3CC=C4C[C@@H](O)C[C@@H](O[C@@H]5O[C@H](CO)[C@@H](O)[C@H](O)[C@H]5O)[C@]4(C)[C@H]3CC[C@]12C` gave an IC50 of over 10 µg/mL.

`CC1CC[C@@]2(OC1)O[C@H]1C[C@H]3[C@@H]4C[C@H](O)[C@H]5C[C@@H](O[C@@H]6O[C@H](CO)[C@H](O[C@@H]7O[C@H](CO)[C@@H](O)[C@H](O[C@@H]8OC[C@@H](O)[C@H](O)[C@H]8O)[C@H]7O[C@@H]7O[C@H](CO)[C@@H](O)[C@H](O[C@@H]8OC[C@@H](O)[C@H](O)[C@H]8O)[C@H]7O)[C@H](O)[C@H]6O)CC[C@]5(C)[C@H]4CC[C@]3(C)[C@H]1[C@@H]2C` (some centres undefined) showed an IC50 of 2.6 µg/mL (≈ 2.2 µM).
